Data: article PMC3880013, “Toward an Understanding of Agonist Binding to Human Orexin-1 and Orexin-2 Receptors with G-Protein-Coupled Receptor Modeling and Site-Directed Mutagenesis” (Biochemistry, 2013)
Like-named read-outs stand apart in the source and are kept apart here. Marks after values point to notes of the source that are not given here. Where no end group is shown, it is not given here.

Assays:
[1] = test system: hOX2 W214A; design: method as in earlier work; conditions: hOX2 W214A (45.54) relative to wild type, [Ca2+]i response, ref 37 Malherbe et al., cited from earlier work
[2] = test system: hOX1 Q179A; test: Calcium flux assay, CHO-K1 cells stably expressing Orexin receptor mutant; format: cell-based, human; conditions: hOX1 Q179A (4.60) vs wild type, CHO-K1, Fluo-4AM, this work
Experimental: (§1) A combination of overlap and mismatch polymerase chain reaction (PCR) was used to introduce mutations into the corresponding Orexin-1 and Orexin-2 cDNAs as described by us previously.[62] Each mutation was made via the generation of two overlapping PCR fragments with PfuUltra II Fusion HS DNA Polymerase (Strategene). The two products were extracted, and a second round of PCR was performed via combination of both fragments with 5′ and 3′ gene specific primers (containing BamHI and NotI restriction sites, respectively). The resulting gel-purified products were then cloned into expression vector pFB-Neo for subsequent generation of stable cell lines. Constructs were confirmed via sequencing. Each verified cDNA was subsequently used to generate single, stably expressing clones in the CHO-K1 cell line.
(§2) Standard calcium flux assays were used to assess the functionality of each OX receptor mutant. Each CHO-K1 Orexin mutant was seeded into tissue culture-treated, 384-well, black clear-bottom plates (CellBind Corning 7086), at a density of 7500 cells/well in culture medium and maintained in an incubator (5% CO2 at 37 °C) overnight. The cell medium was removed, and the cells were incubated in 20 μL of assay buffer (4 μM Fluo-4AM in HBSS with 0.1% BSA) for 90 min at 37 °C. After incubation, the dye was removed and 45 μL of fresh buffer, without dye, was applied. Antagonists (5 μL) were applied, and after incubation for an additional 20 min at 37 °C, 20 μL of receptor specific agonists was applied and the calcium flux monitored using a Flex Station (Molecular Devices) over a period of 1 min. In all cases, the EC80 specific for the individual mutant as determined in previous experiments was reported.

[3] = test system: hOX1 Y311F; test: as above; format: cell-based, human; conditions: hOX1 Y311F (6.48) relative to wild type, CHO-K1, Fluo-4AM, this work
Experimental: as §1, §2

[4] = test system: hOX2 F227W; test: as above; format: cell-based, human; conditions: hOX2 F227W (5.42) relative to wild type, CHO-K1, Fluo-4AM, this work
Experimental: as §1, §2

[5] = test system: hOX2 Q134A; test: as above; format: cell-based, human; conditions: hOX2 Q134A (3.32) relative to wild type, CHO-K1, Fluo-4AM, this work
Experimental: as §1, §2

[6] = test system: hOX2 Q187A; test: as above; format: cell-based, human; conditions: hOX2 Q187A (4.60) relative to wild type, CHO-K1, Fluo-4AM, this work
Experimental: as §1, §2

[7] = test system: hOX1 F219A; conditions: hOX1 F219A (5.42) relative to wild type, [Ca2+]i response, ref 37 Malherbe et al., cited from earlier work
From the text: Other mutations had no major effect on efficacy. || We also explored the role of the conserved F^5.42. […] In the case of OX1, F^5.42 interacts with H26 of OxA that, based on the SDM experiments, has an only moderate impact on potency (see Figure 6A). This is in contrast to OX2 in which F^5.42 interacts with key residue I30 (see Figure 6B). Mutation of I30 of OxA to alanine complet ...

[8] = test system: hOX2 F346A; design: method as in earlier work; conditions: hOX2 F346A (7.35) relative to wild type, [Ca2+]i response, ref 37 Malherbe et al., cited from earlier work
[9] = test system: hOX2 V353A; conditions: hOX2 V353A (7.42) relative to wild type; [Ca2+]i response; ref 37 Malherbe et al.; cited from earlier work
From the text: (§3) Table 1 Comparison of the Effects of Different Mutations in hOX1 and hOX2 on the Binding Potencies of Orexin-A and Orexin-B ^a | column: hOX2 / ratio ^b of Orexin-A

[10] = test system: hOX2 V138A; conditions: hOX2 V138A (3.36) relative to wild type; [Ca2+]i response; ref 37 Malherbe et al.; cited from earlier work
From the text: as §3

[11] = test system: hOX2 Y317F; conditions: hOX2 Y317F (6.48) relative to wild type; [Ca2+]i response; ref 37 Malherbe et al.; cited from earlier work
From the text: as §3

[12] = test system: hOX2 Y354A; conditions: hOX2 Y354A (7.43) relative to wild type; [Ca2+]i response; ref 37 Malherbe et al.; cited from earlier work
From the text: as §3

[13] = test system: hOX2 T135A; conditions: hOX2 T135A (3.33) relative to wild type; [Ca2+]i response; ref 37 Malherbe et al.; cited from earlier work
From the text: as §3

[14] = test system: hOX2 I320A; conditions: hOX2 I320A (6.51) relative to wild type; [Ca2+]i response; ref 37 Malherbe et al.; cited from earlier work
From the text: as §3

[15] = test system: hOX2 F228A; conditions: hOX2 F228A (5.43) relative to wild type; [Ca2+]i response; ref 37 Malherbe et al.; cited from earlier work
From the text: as §3

[16] = test system: hOX2 S139A; conditions: hOX2 S139A (3.37) relative to wild type; [Ca2+]i response; ref 37 Malherbe et al.; cited from earlier work
From the text: as §3

[17] = test system: hOX2 Y223A; design: method as in earlier work; conditions: hOX2 Y223A (5.38) relative to wild type, [Ca2+]i response, ref 37 Malherbe et al., cited from earlier work

## Orexin-A (QPLPDCCRQKTCSCRLYELLHGAGNHAAGILTL; ends and bridges not checked; cysteine pairing not given here; UniProt O43612 34-66, looked up) [hypothalamic neuropeptide, 33 amino acids, two intramolecular disulfide bonds C6-C12 and C7-C14; natural OX1/OX2 agonist]
[1]
  ratio EC50(mut)/EC50(WT): 62.4 ^c fold
[1]; listed as OxA
  ratio EC50(mut)/EC50(WT): 62.4 fold
[2]
  fold improvement in potency relative to wild type: 17.8 fold improvement
[3]
  ratio EC50(mut)/EC50(WT): 1.6 ^d fold
[4]
  ratio EC50(mut)/EC50(WT): 84.2 ^d fold
[5]
  ratio EC50(mut)/EC50(WT): 15.1 fold
[6]
  ratio EC50(mut)/EC50(WT): 1.3 ^d fold
[7]
  ratio EC50(mut)/EC50(WT): 139.6 ^c fold
[7]; listed as OxA
  ratio EC50(mut)/EC50(WT): 139.6 fold
[8]
  ratio EC50(mut)/EC50(WT): 54.5 ^c fold
[8]; listed as OxA
  ratio EC50(mut)/EC50(WT): 54.5 fold
[9]
  ratio EC50(mut)/EC50(WT): 1.9 ^c fold
[10]
  ratio EC50(mut)/EC50(WT): 4.4 ^c fold
[11]
  ratio EC50(mut)/EC50(WT): 1.3 ^c fold
[12]
  ratio EC50(mut)/EC50(WT): 3.7 ^c fold
[13]
  ratio EC50(mut)/EC50(WT): 0.8 ^c fold
[14]
  ratio EC50(mut)/EC50(WT): 0.9 ^c fold
[15]
  ratio EC50(mut)/EC50(WT): 3.0 ^c fold
[16]
  ratio EC50(mut)/EC50(WT): 2.5 ^c fold
[17]
  ratio EC50(mut)/EC50(WT): 183.9 ^c fold
[17]; listed as OxA
  ratio EC50(mut)/EC50(WT): 183.9 fold
